Measured values reported in paper PMC13086964, “USP7 deubiquitinase stabilizes FAN1 to support DNA crosslink repair and suppress CAG repeat expansion” (Nature Communications, 2026).

Tests used:
Format in all cases: cell-based, human
FAN1 protein level = experiment: immunoblot of FAN1 levels after MMC, HeLa; details: MMC 1 μg/ml, 48 h
Procedure: (§1) Fig. 4 USP7 facilitates FAN1 localization and function during ICL repair. A QIBC analysis of chromatin-bound GFP-FAN1 foci in U2OS^eGFP-FAN1 cells transfected with either non-targeting (Ctrl), USP7 or FANCD2 siRNA oligos. 24 h later, cells were either mock-treated (–) or treated (+) with MMC (150 ng/ml) for 24 h. Color-coded scatterplots (from grey to green) indicate the number of GFP-FAN1 foci per nucleus from one biological replicate. Mean (solid line) and standard deviation (SD) from the mean (dashed lines) are indicated. Representative images are shown (bottom). Scale bar: 10 μm. This experiment was repeated three times. B QIBC analysis of endogenous FANCD2 foci in U2OS^eGFP-FAN1 cells transfected with either non-targeting (Ctrl) or the indicated siRNA oligos. 24 h later, cells were either mock-treated (−) or treated (+) with MMC (150 ng/ml) for 24 h. Color-coded scatterplots (from grey to blue) indicate the number of FANCD2 foci per nucleus from one biological replicate. Mean (solid line) and standard deviation (SD) from the mean (dashed lines) are indicated. […] 24 h later, cells were either mock-treated (−) or treated (+) with MMC (1 μg/ml) for 48 h and whole-cell lysates were analysed by immunoblotting. […] Relative FAN1, cleaved PARP-1 or cleaved Caspase-3 protein levels were determined by quantification of the respective band intensity (normalized to GAPDH) with the ImageJ software. […]

RPE-1 p53 KO cells = experiment: apoptosis: PARP-1 and caspase-3 cleavage, RPE-1 p53 KO; details: RPE-1 p53 KO cells depleted of FAN1, USP7, or both, MMC 1 μg/ml, 48 h
Procedure: If not stated otherwise, cells were lysed in RIPA buffer (50 mM Tris-HCl, pH 7.5, 150 mM NaCl, 1% IGEPAL, 0.5% sodium deoxycholate, 0.1% SDS) supplemented with phosphatase inhibitors (20 mM NaF and 1 mM Na3VO4) and protease inhibitors (1 mM benzamidine and 0.1 mM PMSF), incubated with Benzonase (Merck) for at least 30 min at 4 °C, and clarified by centrifugation. Proteins were resolved by SDS-PAGE and transferred to nitrocellulose membranes. Immunoblots were performed with the indicated antibodies, and proteins were visualized using the Advansta WesternBright ECL reagent and the Fusion Solo S imaging system. Relative protein levels were determined by quantification of the protein of interest band intensity normalized to the loading control with the ImageJ software. […]
the mean (dashed lines) are indicated. Representative images are shown (bottom). Scale bar: 10 μm.
This experiment was repeated three times. (B) QIBC analysis of chromatin-bound GFP-FAN1 foci in U2OSGFP-FAN1 cells were concurrently mock-treated (-) or treated (+) with MMC (150 ng/ml) and either FT671 (10 µM) or GNE-6640 (10 µM) for 24 h. […] 24 h later, cells were either mock-treated (-) or treated (+) with MMC (1 μg/ml) for 48 h and whole-cell lysates were analysed by immunoblotting. […]
Relative FAN1 protein levels were determined by quantification of FAN1 band intensity (normalized to GAPDH) with the ImageJ software. […]

[1] = system: HeLa parental and FAN1 KO cells; experiment: apoptosis: PARP-1 and caspase-3 cleavage, HeLa; details: 48 h
Procedure: as §1

CO[C@@]12[C@H](COC(N)=O)C3=C(C(=O)C(C)=C(N)C3=O)N1C[C@@H]1N[C@@H]12 [MMC, Mitomycin C]
FAN1 levels in response to MMC (FAN1 protein level): upregulated
MMC-induced FAN1 upregulation with USP7 depletion (FAN1 protein level; USP7 siRNA): abrogated by USP7 depletion
apoptosis (cleavage of PARP-1 and caspase-3) (RPE-1 p53 KO cells): largely recapitulated
apoptosis (cleavage of PARP-1 and caspase-3) ([1]; HeLa FAN1 KO cells depleted of USP7, MMC 1 µg/ml): further amplified
apoptosis (cleavage of PARP-1 and caspase-3) ([1]; HeLa, USP7 depletion or FAN1 loss, MMC 1 µg/ml): increased apoptosis
